# Results reported in US20240208986A1, “PHENYL AZEPINES AS RIPK1 INHIBITORS AND METHODS OF USE THEREOF” (Merck Sharp & Dohme LLC, priority 2021, published 2024).
# Biological target: RIPK1 (recombinant GST-RIPK1 kinase domain, residues 1-327) (Homo sapiens (Human), UniProt Q13546)
# Test: RIPK1-ADP-Glo Enzymatic Assay
# Format: biochemical
# Details: 25 nM GST-RIPK1, 300 μM ATP, 3 μM dephosphorylated-MBP; 30 minutes pre-incubation, 150 minutes reaction; ten-point titration
# Procedure: The enzymatic activity of RIPK1 is measured using an assay derived from ADP-Glo kit (™Promega), which provides a luminescent-based ADP detection system. Specifically, the ADP generated by RIPK1 kinase is proportionally detected as luminescent signals in a homogenous fashion. In this context, the assessment of the inhibitory effect of small molecules (EC50) is measured by the effectiveness of the compounds to inhibit the ATP to ADP conversion by RIPK1.
# In this assay, the potency (EC50) of each compound was determined from a ten-point (1:3 serial dilution; top compound concentration of 100000 nM) titration curve using the following outlined procedure. To each well of a white ProxiPlus 384 well-plate, 30 nL of compound (1% DMSO in final assay volume of 3 μL) was dispensed, followed by the addition of 2 μL of 1× assay buffer (25 mM Hepes 7.3, 20 mM MgCl2, 50 mM NaCl, 1 mM DTT, 0.005% Tween20, and 0.02% BSA) containing 37.5 nM of GST-RIPK1 (recombinant GST-RIPK1 kinase domain (residues 1-327) enzyme produced from baculovirus-transfected Sf21 cells: MW=62 kDa). Plates were placed in an ambient temperature humidified chamber for a 30 minutes pre-incubation with compound. Subsequently, each reaction was initiated by the addition of 1 μL 1× assay buffer containing 900 μM ATP and 3 μM dephosphorylated-MBP substrate. The final reaction in each well of 3 μL consists of 25 nM of GST-RIPK1, 300 μM ATP, and 3 μM dephosphorylated-MBP. Kinase reactions were allowed to proceed for 150 minutes prior to adding ADP-Glo reagents per Promega's outlined kit protocol. Dose-response curves were generated by plotting percent effect (% product conversion; Y-axis) vs. Log10 compound concentrations (X-axis). EC50 values were calculated using a non-linear regression, four-parameters sigmoidal dose-response model.
# Chain of RIPK1 (recombinant GST-RIPK1 kinase domain, residues 1-327) (Q13546 1-327): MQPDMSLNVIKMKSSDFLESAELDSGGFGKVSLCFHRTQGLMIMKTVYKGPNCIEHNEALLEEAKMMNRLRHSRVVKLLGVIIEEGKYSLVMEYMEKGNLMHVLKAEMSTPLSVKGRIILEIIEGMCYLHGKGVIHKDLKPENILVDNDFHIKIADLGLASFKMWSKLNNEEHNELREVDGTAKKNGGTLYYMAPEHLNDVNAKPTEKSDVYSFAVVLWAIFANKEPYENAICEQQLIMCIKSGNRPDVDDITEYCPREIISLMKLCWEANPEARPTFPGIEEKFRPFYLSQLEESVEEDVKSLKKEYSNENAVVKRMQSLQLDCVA
row,Structure (SMILES),IC50
1,"O=C(N1C[C@@H]2C[C@H]1c1ccccc1O2)C12CC(C(F)F)(C1)C2 [Compound 1-60, [3-(difluoromethyl)bicyclo [1.1.1]pentan-1-yl][(2S,5S)-2,3-dihydro-2,5-methano-1,4-benzoxazepin-4(5H)-yl]methanone]",512 nM
2,"CC(C)(C(=O)N1C[C@@H]2C[C@H]1c1cc(Cl)ccc1O2)C(F)F [Compound 2-1, 1-[(2S,5S)-7-chloro-2,3-dihydro-2,5-methano-1,4-benzoxazepin-4(5H)-yl]-3,3-difluoro-2,2-dimethylpropan-1-one]",61 nM
3,"CC(C)(C(=O)N1C[C@@H]2C[C@H]1c1cc(C#N)ccc1O2)C(F)F [Compound 2-2, (2S,5S)-4-(3,3-difluoro-2,2-dimethylpropanoyl)-2,3,4,5-tetrahydro-2,5-methano-1,4-benzoxazepine-7-carbonitrile]",158 nM
4,"Cc1ccc2c(c1)[C@@H]1C[C@@H](CN1C(=O)C(C)(C)C(F)F)O2 [Compound 2-3, 3,3-difluoro-2,2-dimethyl-1-[(2S,5S)-7-methyl-2,3-dihydro-2,5-methano-1,4-benzoxazepin-4(5H)-yl]propan-1-one]",143 nM
5,"CC(C)(C)C(=O)N1C[C@@H]2C[C@H]1c1cc(F)cc(F)c1O2 [Compound 2-4, 1-[(2S,5S)-7,9-difluoro-2,3-dihydro-2,5-methano-1,4-benzoxazepin-4(5H)-yl]-2,2-dimethylpropan-1-one]",60 nM
6,"CC(C)(C)C(=O)N1C[C@@H]2C[C@H]1c1cc(F)ccc1O2 [Compound 2-5, 1-[(2S,5S)-7-fluoro-2,3-dihydro-2,5-methano-1,4-benzoxazepin-4(5H)-yl]-2,2-dimethylpropan-1-one]",34 nM
7,"CC(C)(C)C(=O)N1C[C@@H]2C[C@H]1c1cccc(F)c1O2 [Compound 2-6, 1-[(2S,5S)-9-fluoro-2,3-dihydro-2,5-methano-1,4-benzoxazepin-4(5H)-yl]-2,2-dimethylpropan-1-one]",43 nM
8,"CC(C)(C(=O)N1C[C@@H]2C[C@H]1c1cc(F)ccc1O2)C(F)F [Compound 2-7, 3,3-difluoro-1-[(2S,5S)-7-fluoro-2,3-dihydro-2,5-methano-1,4-benzoxazepin-4(5H)-yl]-2,2-dimethylpropan-1-one]",25 nM
9,"CC(C)(C(=O)N1C[C@@H]2C[C@H]1c1cccc(F)c1O2)C(F)F [Compound 2-8, 3,3-difluoro-1-[(2S,5S)-9-fluoro-2,3-dihydro-2,5-methano-1,4-benzoxazepin-4(5H)-yl]-2,2-dimethylpropan-1-one]",20 nM
10,"CC1(C(=O)N2C[C@@H]3C[C@H]2c2cc(F)ccc2O3)CCC1 [Compound 2-9, [(2S,5S)-7-fluoro-2,3-dihydro-2,5-methano-1,4-benzoxazepin-4(5H)-yl](1-methylcyclobutyl)methanone]",63 nM
11,"CC1(C(=O)N2C[C@@H]3C[C@H]2c2cccc(F)c2O3)CCC1 [Compound 2-10, [(2S,5S)-9-fluoro-2,3-dihydro-2,5-methano-1,4-benzoxazepin-4(5H)-yl](1-methylcyclobutyl)methanone]",30 nM
12,"CC(C)(C(=O)N1C[C@@H]2C[C@H]1c1cc(F)cc(C#N)c1O2)C(F)F [Compound 2-11, (2S,5S)-4-(3,3-difluoro-2,2-dimethylpropanoyl)-7-fluoro-2,3,4,5-tetrahydro-2,5-methano-1,4-benzoxazepine-9-carbonitrile]",26 nM
13,"CC(F)(F)C(C)(C)C(=O)N1C[C@@H]2C[C@H]1c1cccc(F)c1O2 [Compound 2-12, 3,3-difluoro-1-[(2S,5S)-9-fluoro-2,3-dihydro-2,5-methano-1,4-benzoxazepin-4(5H)-yl]-2,2-dimethylbutan-1-one]",20 nM
14,"CC(F)(F)C(C)(C)C(=O)N1C[C@@H]2C[C@H]1c1cc(F)ccc1O2 [Compound 2-13, 3,3-difluoro-1-[(2S,5S)-7-fluoro-2,3-dihydro-2,5-methano-1,4-benzoxazepin-4(5H)-yl]-2,2-dimethylbutan-1-one]",23 nM
15,"O=C(N1C[C@@H]2C[C@H]1c1cc(F)ccc1O2)C12CCC(CC1)C2 [Compound 2-14, (bicyclo[2.2.1]heptan-1-yl)[(2S,5S)-7-fluoro-2,3-dihydro-2,5-methano-1,4-benzoxazepin-4(5H)-yl]methanone]",15 nM
16,"O=C(N1C[C@@H]2C[C@H]1c1cccc(F)c1O2)C12CCC(CC1)C2 [Compound 2-15, (bicyclo[2.2.1]heptan-1-yl)[(2S,5S)-9-fluoro-2,3-dihydro-2,5-methano-1,4-benzoxazepin-4(5H)-yl]methanone]",24 nM

row,Structure (SMILES),IC50
1,"CC(F)(F)C(C)(C)C(=O)N1C[C@@H]2C[C@H]1c1ccc(Cl)cc1O2 [Compound 2-16, 1-((2S,5S)-8-chloro-2,3-dihydro-2,5-methanobenzo[f][1,4]oxaze-pin-4(5H)-yl)-3,3-difluoro-2,2-dimethylbutan-1-one]",35 nM
2,"CC(C)(C(=O)N1C[C@@H]2C[C@H]1c1cccc(C#N)c1O2)C(F)F [Compound 2-19, (2S,5S)-4-(3,3-difluoro-2,2-dimethylpropanoyl)-2,3,4,5-tetrahydro-2,5-methano-1,4-benzoxazepine-9-carbonitrile]",18 nM
3,"CC(C)(C(=O)N1C[C@@H]2C[C@H]1c1cccc(Cl)c1O2)C(F)F [Compound 2-20, 1-[(2S,5S)-9-chloro-2,3-dihydro-2,5-methano-1,4-benzoxazepin-4(5H)-yl]-3,3-difluoro-2,2-dimethylpropan-1-one]",52 nM
4,"CC(C)(C(=O)N1C[C@@H]2C[C@H]1c1ccc(Cl)cc1O2)C(F)F [Compound 2-21, 1-[(2S,5S)-8-chloro-2,3-dihydro-2,5-methano-1,4-benzoxazepin-4(5H)-yl]-3,3-difluoro-2,2-dimethylpropan-1-one]",37 nM
5,"CC(C)(C(=O)N1C[C@@H]2C[C@H]1c1ccc(C#N)cc1O2)C(F)F [Compound 2-22, (2S,5S)-4-(3,3-difluoro-2,2-dimethylpropanoyl)-2,3,4,5-tetrahydro-2,5-methano-1,4-benzoxazepine-8-carbonitrile]",388 nM
6,"CC(C)(CC#N)C(=O)N1C[C@@H]2C[C@H]1c1ccc(Cl)cc1O2 [Compound 2-23, 4-((2S,5S)-8-chloro-2,3-dihydro-2,5-methanobenzo[f][1,4]oxaze-pin-4(5H)-yl)-3,3-dimethyl-4-oxobutanenitrile]",49 nM
7,"CC(C)(C(=O)N1C[C@@H]2C[C@H]1c1cc(F)cc(Cl)c1O2)C(F)F [Compound 2-24, 1-[(2S,5S)-9-chloro-7-fluoro-2,3-dihydro-2,5-methano-1,4-benzoxazepin-4(5H)-yl]-3,3-difluoro-2,2-dimethylpropan-1-one]",30 nM
8,"N#Cc1cc(F)cc2c1O[C@H]1C[C@@H]2N(C(=O)C23CCC(F)(CC2)C3)C1 [Compound 2-25, (2S,5S)-7-fluoro-4-(4-fluorobicyclo[2.2.1]heptane-1-carbonyl)-2,3,4,5-tetrahydro-2,5-methano-1,4-benzoxazepine-9-carbonitrile]",10 nM
9,"CC(C)(C(=O)N1C[C@@H]2C[C@H]1c1cc(F)cc(F)c1O2)C(F)F [Compound 2-26, 1-[(2S,5S)-7,9-difluoro-2,3-dihydro-2,5-methano-1,4-benzoxazepin-4(5H)-yl]-3,3-difluoro-2,2-dimethylpropan-1-one]",12 nM
10,"CC(C)(CC#N)C(=O)N1C[C@@H]2C[C@H]1c1cc(F)cc(F)c1O2 [Compound 2-27, 4-[(2S,5S)-7,9-difluoro-2,3-dihydro-2,5-methano-1,4-benzoxazepin-4(5H)-yl]-3,3-dimethyl-4-oxobutanenitrile]",16 nM
11,"N#CCC1(C(=O)N2C[C@@H]3C[C@H]2c2cccc(F)c2O3)CCC1 [Compound 2-28, {1-[(2S,5S)-9-fluoro-2,3-dihydro-2,5-methano-1,4-benzoxazepine-4(5H)-carbonyl]cyclobutyl} acetonitrile]",809 nM
12,"CC1(C(=O)N2C[C@@H]3C[C@H]2c2cc(F)ccc2O3)CC(C#N)C1 (stereo partly drawn) [Compound 2-29, 3-((2S,5S)-7-fluoro-2,3,4,5-tetrahydro-2,5-methanobenzo[f][1,4]oxaze-pine-4-carbonyl)-3-methylcyclobutane-1-carbonitrile]",55 nM
13,"CC1(C(=O)N2C[C@@H]3C[C@H]2c2cccc(F)c2O3)CC(C#N)C1 (stereo partly drawn) [Compound 2-30, 3-((2S,5S)-9-fluoro-2,3,4,5-tetrahydro-2,5-methanobenzo[f][1,4]oxaze-pine-4-carbonyl)-3-methylcyclobutane-1-carbonitrile]",75 nM
14,"C[C@@H]1[C@@H]2C[C@@H](c3ccccc3O2)N1C(=O)C(C)(C)C [Compound 2-31, 2,2-dimethyl-1-((2S,3R,5S)-3-methyl-2,3-dihydro-2,5-methanobenzo[f][1,4]oxaze-pin-4(5H)-yl)propan-1-one]",132 nM
15,"O=C(N1C[C@@H]2C[C@H]1c1cc(Cl)ccc1O2)C12CCC(F)(CC1)C2 [Compound 2-32, ((2S,5S)-7-chloro-2,3-dihydro-2,5-methanobenzo[f][1,4]oxaze-pin-4(5H)-yl)(4-fluorobicyclo[2.2.1]heptan-1-yl)methanone]",39 nM
